In patent publication US10098962B2, “Glycosaminoglycan derivative and method for producing same” (Seikagaku Corporation, priority 2013, dated 2018):

What was measured:
[1] = rat, in vivo, inhaled or intranasal
Experimental: As a system for test, BN/CrlCrlj rat (Charles River Laboratories International, Inc., 5-week old) was used.
For administration of each test substance, the test system was fixed dorsally under general anesthesia, and by using a sonde for intratracheal administration (MicroSprayer® Aerosolizer Model IA-1B, manufactured by Penn-Century), intratracheal administration was performed with volume of 100 μL. As general anesthesia, inhalation of isoflurane (Forane (registered trade mark), Dainippon Pharmaceutical Co., Ltd., concentration of 3.0%, flow rate of 2.0 L/min) filled in a small animal anesthetizer (TK-4, manufactured by BioMachinery Co., Ltd.) was used.
At Hour 4, 24, 48, 72 and 168 after administration of a test substance, the pulmonary tissue was collected by using scissors and forceps under pentobarbital anesthesia. Meanwhile, three samples were taken for each evaluation time point. […]
Each parameter of drug kinetics was calculated from a change in average content in pulmonary tissue. If there was an animal showing the measurement value of less than lower limit of quantification (<10 ng/g), the average content in pulmonary tissue was calculated by having the value of 0 (zero) for it. The time t (hr) for calculating AUC0-t was the final time point at which the quantification can be made. […]

[2] = tested on: rat model of muscle pain disorder caused by silver nitrate; experiment: Effect of NSAID coupled chondroitin sulfates in rat model of muscle pain induced by silver nitrate (Test Example B3); format: in vivo; details: i.m. 100 μL/site, 1% DF-CS or 5% other conjugates in PBS, 24, 48, 72 h after administration
Experimental: As an inflammatory agent, 0.1 mol/L silver nitrate solution was filtered through a 0.22 μm filter and used. […] Accordingly, a rat model of muscle pain disorder caused by silver nitrate was prepared. […] Furthermore, *** and * represent, in the parametric Tukey test, ***p<0.001 and *p<0.05 (vs Control), respectively. Score 0: Normal Score 1: Mild claudication Score 2: Severe claudication Score 3: Walking on three legs […] The length of move of the weight at which a pain-related behavior like avoidance is shown was read to one decimal place. This operation was repeated three times in total, and the median value was taken as the muscle pressure pain threshold. […] Furthermore, *** and * represent, in the parametric Tukey test, ***p<0.001 and *p<0.05 (vs Control), respectively.

[3] = tested on: rat model of muscle pain disorder caused by carrageenan; experiment: Effect of diclofenac coupled chondroitin sulfate in rat model of muscle pain disorder caused by carrageenan, 7 days (Test Example B8); format: in vivo
Experimental: The followings were prepared as a test substance in which PBS is used as a solvent.
As an inflammatory agent, 10 mg/mL carrageenan solution was used. As general anesthesia, inhalation of isoflurane (concentration of 3.0%, flow rate of 2.0 L/min) filled in a small animal anesthetizer (TK-4, manufactured by BioMachinery Co., Ltd.) was used.
A rat (Crj: SD line (SPF), male, 9-week old) was fixed dorsally under general anesthesia, and a broad region around the left gastrocnemius muscle was shaved using a shaver. The area for injection was sprayed with 70% alcohol for sterilization, and by using an injection tube applied with needle for subcutaneous insulin administration (MYJECTOR (registered trade mark), TERUMO CORPORATION), the test solution was injected (volume of 100 μL/site) for intramuscular administration into the left gastrocnemius muscle of a rat.
7 Days after administering the test substance, each group was administered with 10 mg/mL carrageenan solution. As for the administration method, like the test substance, under inhalation of isoflurane, the region around the gastrocnemius muscle was sprayed with 70% alcohol for sterilization, and by using an injection tube applied with 29 G needle for subcutaneous insulin administration, it was injected (volume of 100 μL/site) for intramuscular administration into the left gastrocnemius muscle of a rat. […]

Compound	AUC0-t [1] [ng·h/g]	AUC0-∞ [1] [ng·h/g]	pain score vs control group ([2]; FIG. 3)	muscle pressure pain threshold value vs control group ([2]; FIG. 4)	muscle pressure pain threshold value vs control group ([3]; 1% (w/v) i.m. 7 days before carrageenan, measured 3 h after carrageenan, FIG. 11)	duration of analgesic effect ([3]; 1% (w/v), intramuscular administration) [days]
C[C@H]1C[C@H]2[C@@H]3CCC4=CC(=O)C=C[C@]4(C)[C@@]3(F)[C@@H](O)C[C@]2(C)[C@@]1(O)C(=O)CO [Betamethasone]	21371	21797	–	–	–	–
diclofenac-(2-aminoethanol)-chondroitin sulfate [DF-CS]	–	–	improved in a significant sense	increased in a significant sense	increased in a significant sense	7
